Reference: the supplement of paper PMC5722580

Legend:
[1] = tested on: NK-YS; assay: drug sensitivity score (viability inhibition); higher = more sensitive; details: 72 h; IL2 2.5 ng/ml
Description: (§1)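 NK-cell leukemia/lymphoma cell lines (3,000 cells/well) were cultured with IL2 2.5 ng/ml in 384-well drug plates (5-8 concentrations over a 10,000-fold range) for 72 h at 37 C; viability was read with CellTiter-Glo. DSS is a normalised area under the dose-response curve; the experiment was repeated twice.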

[2] = tested on: KHYG-1; assay: as above; details: 72 h; IL2 2.5 ng/ml
Description: as §1

[3] = tested on: NK-92; assay: as above; details: 72 h; IL2 2.5 ng/ml
Description: as §1

[4] = tested on: YT; assay: as above; details: 72 h; IL2 2.5 ng/ml
Description: as §1

[5] = tested on: KAI3; assay: as above; details: 72 h; IL2 2.5 ng/ml
Description: as §1

[6] = tested on: NKL; assay: as above; details: 72 h; IL2 2.5 ng/ml
Description: as §1

[7] = tested on: SNK6; assay: as above; details: 72 h; IL2 2.5 ng/ml
Description: as §1

[8] = tested on: HEK293-SIE STAT3 Y640F; assay: drug sensitivity score (inhibition of STAT3 luciferase reporter); higher = stronger inhibition; details: 6 h; IL6 0 ng/ml
Description: (§2)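 HEK293 cells with a STAT3-inducible (SIE) luciferase reporter, stably expressing WT STAT3 (IL6 100 ng/ml) or Y640F STAT3 (no IL6), were incubated 6 h with drugs in 384-well plates (5-8 concentrations over a 10,000-fold range); luciferase was read with ONE-Glo. DSS is a normalised area under the dose-response curve; values are the mean of two experiments.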

[9] = tested on: HEK293-SIE STAT3 WT; assay: as above; details: 6 h; STAT3: WT; IL6 100 ng/ml
Description: as §2

Compound | drug sensitivity score [1] | drug sensitivity score [2] | drug sensitivity score [3] | drug sensitivity score [4] | drug sensitivity score [5] | drug sensitivity score [6] | drug sensitivity score [7] | drug sensitivity score [8] | drug sensitivity score [9]
C[C@@H]1C[C@H]2[C@@H]3CCC4=CC(=O)C=C[C@]4(C)[C@@]3(F)[C@@H](O)C[C@]2(C)[C@@]1(O)C(=O)CO [Dexamethasone] | 3.83 DSS | 15.6 DSS | 0 DSS | 9.73 DSS | 1.14 DSS | 24.6 DSS | 0 DSS | 2.6 DSS | 1.8 DSS
CO[C@H]1C[C@@H]2CC[C@@H](C)[C@@](O)(O2)C(=O)C(=O)N2CCCC[C@H]2C(=O)O[C@H]([C@H](C)C[C@@H]2CC[C@@H](OCCO)[C@H](OC)C2)CC(=O)[C@H](C)/C=C(\C)[C@@H](O)[C@@H](OC)C(=O)[C@H](C)C[C@H](C)/C=C/C=C/C=C/1C [Everolimus] | 16.8 DSS | 5.9 DSS | 1.19 DSS | 11.8 DSS | 6.6 DSS | 17.4 DSS | 12.2 DSS | 8.9 DSS | 3.15 DSS
O=S(=O)(c1cccc2cnccc12)N1CCCNCC1 [Fasudil] | 0.1 DSS | 1.2 DSS | 2.52 DSS | 1.44 DSS | 2.61 DSS | 0.632 DSS | 0.11 DSS | 0 DSS | 1.9 DSS
COc1cc(Nc2ncc(F)c(Nc3ccc4c(n3)N(COP(=O)(O)O)C(=O)C(C)(C)O4)n2)cc(OC)c1OC [Fostamatinib] | 1.04 DSS | 1.22 DSS | 3.43 DSS | 2.81 DSS | 7.41 DSS | 4.15 DSS | 3.04 DSS | 2.93 DSS | 9.75 DSS
CC(C)NC[C@@H](C(=O)N1CCN(c2ncnc3c2[C@H](C)C[C@H]3O)CC1)c1ccc(Cl)cc1 [GDC-0068] | 1.41 DSS | 3.15 DSS | 0.75 DSS | 0.319 DSS | 0 DSS | 1.24 DSS | 1.47 DSS | 0.85 DSS | 4.1 DSS
C[C@@H]1C=C2C(=O)O[C@@H]3CC[C@H](C1)[C@]23O [Galiellalactone] | 3.55 DSS | 4.09 DSS | 3.98 DSS | 1.84 DSS | 5 DSS | 1.09 DSS | 6.92 DSS | 0 DSS | 0 DSS
COc1cc2c(cc1-c1c(C)noc1C)ncc1[nH]c(=O)n([C@H](C)c3ccccn3)c12 [I-BET151] | 12.2 DSS | 13.3 DSS | 1.34 DSS | 7.05 DSS | 4.86 DSS | 8.89 DSS | 11.6 DSS | 4.4 DSS | 11.5 DSS
CC(C)n1nc(-c2ccc3oc(N)nc3c2)c2c(N)ncnc21 [INK128] | 11.8 DSS | 7.21 DSS | 10.7 DSS | 11.9 DSS | 7.66 DSS | 16.2 DSS | 8.08 DSS | 12 DSS | 13.8 DSS
C#Cc1cccc(Nc2ncnc3cc4c(cc23)OCCOCCOCCO4)c1 [Icotinib] | 0.207 DSS | 0.998 DSS | 2.41 DSS | 0.21 DSS | 0.075 DSS | 0 DSS | 2.53 DSS | 0 DSS | 2.75 DSS
CC[C@H](Nc1ncnc2[nH]cnc12)c1nc2cccc(F)c2c(=O)n1-c1ccccc1 [Idelalisib] | 0.598 DSS | 0.4 DSS | 9.76 DSS | 1.42 DSS | 1.38 DSS | 1.96 DSS | 5.48 DSS | 3.9 DSS | 0 DSS
O=C(Cc1ccc(-c2ccc(OCCN3CCOCC3)cc2)cn1)NCc1ccccc1 [KX2-391] | 28.1 DSS | 31.6 DSS | 32.4 DSS | 31.7 DSS | 22.4 DSS | 31.2 DSS | 31.7 DSS | 0 DSS | 0 DSS
NS(=O)(=O)c1cccc2c1C(=O)c1cccc(O)c1C2=O [LLL12] | 15 DSS | 22.9 DSS | 23.1 DSS | 18.2 DSS | 18.9 DSS | 24.9 DSS | 28 DSS | 12.4 DSS | 17.1 DSS
C[C@]12O[C@H](C[C@]1(O)CO)n1c3ccccc3c3c4c(c5c6ccccc6n2c5c31)CNC4=O [Lestaurtinib] | 12.4 DSS | 22 DSS | 14.3 DSS | 13.5 DSS | 18.3 DSS | 14.6 DSS | 13 DSS | 10.8 DSS | 20.7 DSS
CCNC(=O)c1noc(-c2cc(C(C)C)c(O)cc2O)c1-c1ccc(CN2CCOCC2)cc1 [Luminespib] | 26.9 DSS | 24 DSS | 27.4 DSS | 18.6 DSS | 25.6 DSS | 29.1 DSS | 19.6 DSS | 12.8 DSS | 16.3 DSS
C=CCn1c(=O)c2cnc(Nc3ccc(N4CCN(C)CC4)cc3)nc2n1-c1cccc(C(C)(C)O)n1 [MK1775] | 20.5 DSS | 24.5 DSS | 23 DSS | 19.8 DSS | 19.9 DSS | 22.5 DSS | 19.7 DSS | 8.87 DSS | 9.88 DSS
NC1(c2ccc(-c3nc4ccn5c(=O)[nH]nc5c4cc3-c3ccccc3)cc2)CCC1 [MK-2206] | 5 DSS | 4.1 DSS | 6.29 DSS | 2.45 DSS | 6.43 DSS | 4.44 DSS | 2.89 DSS | 0 DSS | 5.85 DSS
CN(Cc1cnc2nc(N)nc(N)c2n1)c1ccc(C(=O)N[C@@H](CCC(=O)O)C(=O)O)cc1 [Methotrexate] | 18.8 DSS | 15.1 DSS | 12.2 DSS | 15.8 DSS | 12.8 DSS | 8.04 DSS | 21.2 DSS | 0.233 DSS | 1.4 DSS
C[C@H]1C[C@@H]2[C@H]([C@@H](O)C[C@@]3(C)[C@H]2CC[C@]3(O)C(=O)CO)[C@@]2(C)C=CC(=O)C=C12 [Methylprednisolone] | 3.19 DSS | 10.5 DSS | 0 DSS | 8.81 DSS | 1.27 DSS | 16 DSS | 0.065 DSS | 0.4 DSS | 0 DSS
N#CCNC(=O)c1ccc(-c2ccnc(Nc3ccc(N4CCOCC4)cc3)n2)cc1 [Momelotinib] | 10.8 DSS | 18.9 DSS | 10.1 DSS | 8.12 DSS | 13.9 DSS | 15.9 DSS | 8.25 DSS | 12.4 DSS | 24.2 DSS
CC1(C)CCC(c2ccc(Cl)cc2)=C(CN2CCN(c3ccc(C(=O)NS(=O)(=O)c4ccc(N[C@H](CCN5CCOCC5)CSc5ccccc5)c(S(=O)(=O)C(F)(F)F)c4)cc3)CC2)C1 [Navitoclax] | 27.6 DSS | 25.9 DSS | 14.2 DSS | 23.3 DSS | 39.8 DSS | 22.4 DSS | 39.1 DSS | 0.5 DSS | 0 DSS
COc1ncc(-c2ccc3nccc(-c4ccnnc4)c3c2)cc1NS(=O)(=O)c1ccc(F)cc1F [Omipalisib] | 12.1 DSS | 9.27 DSS | 11.6 DSS | 10.9 DSS | 6.45 DSS | 11.3 DSS | 5.15 DSS | 8.15 DSS | 5.9 DSS
